Assay results reported in ChEMBL document CHEMBL1201862, “PubChem BioAssay data set” (2004).
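These data come from cells grown in 96-well plates and exposed to compound for 48 hours at five concentrations. Here, GI50 denotes the concentration required for 50% inhibition of growth.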 The source made the active and inactive calls. No stated cut-off is given here; in the data, active = GI50 up to about 1.1 µM and inactive = higher.

Tests used:
Experiment in all cases: NCI tumour cell line growth inhibition, 48 h
HT-29 = tested on: HT-29
SK-OV-3 = tested on: SK-OV-3
LOX IMVI = tested on: LOX IMVI
DU-145 = tested on: DU-145
T47D = tested on: T47D
SF-268 = tested on: SF-268
SNB-75 = tested on: SNB-75
CCRF-CEM = tested on: CCRF-CEM
SNB-19 = tested on: SNB-19
SK-MEL-2 = tested on: SK-MEL-2
OVCAR-4 = tested on: OVCAR-4
HOP-62 = tested on: HOP-62
SF-295 = tested on: SF-295
K562 = tested on: K562
MOLT-4 = tested on: MOLT-4
786-0 = tested on: 786-0
NCI/ADR-RES = tested on: NCI/ADR-RES
HCC 2998 = tested on: HCC 2998
Hs-578T = tested on: Hs-578T
NCI-H226 = tested on: NCI-H226
TK-10 = tested on: TK-10
HL-60 = tested on: HL-60
MDA-N = tested on: MDA-N
OVCAR-5 = tested on: OVCAR-5
HCT-116 = tested on: HCT-116
COLO 205 = tested on: COLO 205
PC-3 = tested on: PC-3
SW-620 = tested on: SW-620
MDA-MB-435 = tested on: MDA-MB-435
UACC-257 = tested on: UACC-257
SK-MEL-5 = tested on: SK-MEL-5
BT-549 = tested on: BT-549
UO-31 = tested on: UO-31
KM12 = tested on: KM12
A498 = tested on: A498
SR = tested on: SR
UACC-62 = tested on: UACC-62
NCI-H460 = tested on: NCI-H460
CAKI-1 = tested on: CAKI-1
NCI-H23 = tested on: NCI-H23
RPMI-8226 = tested on: RPMI-8226
ACHN = tested on: ACHN
NCI-H522 = tested on: NCI-H522
EKVX = tested on: EKVX
HOP-92 = tested on: HOP-92
MCF7 = tested on: MCF7
OVCAR-8 = tested on: OVCAR-8
HCT-15 = tested on: HCT-15
SN12C = tested on: SN12C
U-251 = tested on: U-251
SK-MEL-28 = tested on: SK-MEL-28
RXF 393 = tested on: RXF 393
M14 = tested on: M14
A549 = tested on: A549
OVCAR-3 = tested on: OVCAR-3
IGROV-1 = tested on: IGROV-1
SF-539 = tested on: SF-539
Malme-3M = tested on: Malme-3M
MDA-MB-231 = tested on: MDA-MB-231

Measured: GI50

Cn1c(=O)c2c(nc3n2CCCC(=O)N3CC(O)CCl)n(C)c1=O (stereo not drawn)
inactive: HT-29 > 100 µM | SK-OV-3 > 100 µM | LOX IMVI > 100 µM | DU-145 > 100 µM | T47D > 100 µM | SF-268 > 100 µM | SNB-75 > 100 µM | CCRF-CEM > 100 µM | SNB-19 > 100 µM | SK-MEL-2 > 100 µM | OVCAR-4 > 100 µM | HOP-62 > 100 µM | SF-295 > 100 µM | K562 > 100 µM | MOLT-4 > 100 µM | 786-0 > 100 µM | NCI/ADR-RES > 100 µM | HCC 2998 > 100 µM | Hs-578T > 100 µM | NCI-H226 > 100 µM | TK-10 > 100 µM | HL-60 > 100 µM | MDA-N > 100 µM | OVCAR-5 > 100 µM | HCT-116 > 100 µM | COLO 205 > 100 µM | PC-3 > 100 µM | SW-620 > 100 µM | MDA-MB-435 > 100 µM | UACC-257 > 100 µM | SK-MEL-5 > 100 µM | BT-549 > 100 µM | UO-31 > 100 µM | KM12 > 100 µM | A498 > 100 µM | SR 50.1 µM | UACC-62 > 100 µM | NCI-H460 > 100 µM | CAKI-1 > 100 µM | NCI-H23 > 100 µM | RPMI-8226 > 100 µM | ACHN > 100 µM | NCI-H522 > 100 µM | EKVX > 100 µM | HOP-92 > 100 µM | MCF7 > 100 µM | OVCAR-8 > 100 µM | SN12C > 100 µM | U-251 > 100 µM | SK-MEL-28 > 100 µM | RXF 393 > 100 µM | M14 > 100 µM | A549 > 100 µM | OVCAR-3 > 100 µM | IGROV-1 > 100 µM
> 100 µM: HCT-15

Cc1c2c(c(C)c3c4c(oc13)CCCC4)C=NCC2
active: RPMI-8226 0.818 µM
inactive: HT-29 6.64 µM | SK-OV-3 20.7 µM | LOX IMVI 20.5 µM | SF-539 15.2 µM | DU-145 15 µM | T47D 35.6 µM | SF-268 20.2 µM | SNB-75 15.8 µM | CCRF-CEM 12.1 µM | SNB-19 22.8 µM | SK-MEL-2 17.1 µM | OVCAR-4 22.3 µM | HOP-62 32.2 µM | SF-295 16.1 µM | K562 11.1 µM | MOLT-4 7.89 µM | 786-0 35.2 µM | NCI/ADR-RES 15.4 µM | HCC 2998 21.1 µM | Hs-578T 17 µM | NCI-H226 14.2 µM | TK-10 12.1 µM | HL-60 19.7 µM | OVCAR-5 16.8 µM | HCT-116 14.9 µM | COLO 205 19.5 µM | SW-620 21.3 µM | MDA-MB-435 14.4 µM | UACC-257 14.7 µM | SK-MEL-5 14.9 µM | BT-549 16.8 µM | UO-31 13.1 µM | KM12 16.1 µM | A498 17 µM | SR 6.58 µM | Malme-3M 16 µM | UACC-62 15 µM | NCI-H460 15.8 µM | CAKI-1 13.2 µM | NCI-H23 16.2 µM | ACHN 15.8 µM | NCI-H522 16 µM | EKVX 12.7 µM | HOP-92 11.5 µM | MCF7 16.1 µM | OVCAR-8 10.6 µM | SN12C 15.8 µM | U-251 13.1 µM | MDA-MB-231 16.4 µM | SK-MEL-28 18.9 µM | RXF 393 3.66 µM | M14 20.2 µM | A549 17 µM | OVCAR-3 14.9 µM | IGROV-1 13.6 µM
13.9 µM: HCT-15

OC(CN(CCCl)CCCl)C(O)C(O)C(O)CN(CCCl)CCCl (stereo not drawn)
> 100 µM: HCT-15
inactive: HT-29 > 100 µM | SK-OV-3 > 100 µM | LOX IMVI 27.4 µM | SF-539 52.4 µM | DU-145 71.9 µM | T47D 30.5 µM | SF-268 41.6 µM | CCRF-CEM 37.6 µM | SNB-19 > 100 µM | SK-MEL-2 > 100 µM | HOP-62 > 100 µM | K562 > 100 µM | 786-0 91 µM | NCI/ADR-RES 78.9 µM | HCC 2998 > 100 µM | Hs-578T > 100 µM | NCI-H226 > 100 µM | TK-10 > 100 µM | HL-60 5.04 µM | OVCAR-5 > 100 µM | HCT-116 > 100 µM | COLO 205 84.7 µM | PC-3 > 100 µM | SW-620 > 100 µM | MDA-MB-435 > 100 µM | UACC-257 > 100 µM | SK-MEL-5 > 100 µM | BT-549 > 100 µM | UO-31 22.1 µM | KM12 > 100 µM | A498 > 100 µM | Malme-3M 85.7 µM | UACC-62 12.4 µM | NCI-H460 9.89 µM | CAKI-1 > 100 µM | NCI-H23 63.1 µM | RPMI-8226 > 100 µM | ACHN 2.7 µM | NCI-H522 47.3 µM | EKVX > 100 µM | HOP-92 > 100 µM | MCF7 29 µM | OVCAR-8 > 100 µM | SN12C 23.2 µM | U-251 37.4 µM | MDA-MB-231 > 100 µM | SK-MEL-28 > 100 µM | RXF 393 > 100 µM | M14 > 100 µM | A549 > 100 µM | OVCAR-3 > 100 µM | IGROV-1 > 100 µM
active: SR 0.624 µM

CC(=O)NC1c2ccccc2C(C)(C)C12CCC1(CC2)OCCO1 (stereo not drawn)
> 100 µM: HCT-15
inactive: HT-29 > 100 µM | SK-OV-3 > 10 µM | LOX IMVI > 100 µM | SF-539 > 100 µM | DU-145 > 100 µM | T47D > 100 µM | SF-268 > 100 µM | SNB-75 > 100 µM | CCRF-CEM > 100 µM | SNB-19 > 100 µM | SK-MEL-2 > 100 µM | OVCAR-4 > 100 µM | HOP-62 > 100 µM | SF-295 > 100 µM | K562 > 100 µM | MOLT-4 > 100 µM | 786-0 > 100 µM | NCI/ADR-RES > 100 µM | HCC 2998 > 100 µM | Hs-578T > 100 µM | NCI-H226 > 100 µM | TK-10 > 100 µM | HL-60 > 100 µM | MDA-N > 100 µM | OVCAR-5 > 100 µM | HCT-116 > 100 µM | COLO 205 > 100 µM | PC-3 > 100 µM | SW-620 > 100 µM | UACC-257 > 100 µM | SK-MEL-5 > 100 µM | BT-549 > 100 µM | UO-31 > 100 µM | KM12 > 100 µM | SR > 100 µM | Malme-3M 98.6 µM | UACC-62 > 100 µM | NCI-H460 > 10 µM | CAKI-1 > 100 µM | NCI-H23 > 100 µM | RPMI-8226 > 100 µM | ACHN > 100 µM | NCI-H522 > 100 µM | EKVX > 100 µM | MCF7 > 100 µM | OVCAR-8 > 100 µM | SN12C > 10 µM | U-251 > 100 µM | MDA-MB-231 > 100 µM | SK-MEL-28 > 100 µM | RXF 393 37.9 µM | M14 > 100 µM | A549 > 100 µM | IGROV-1 > 100 µM

Cc1c(C)c(S(=O)(=O)N(CCCCN)OCCCN)c(C)c2c1OC(C)(C)CC2
active: HL-60 1 µM
21.5 µM: HCT-15
inactive: HT-29 17.6 µM | SK-OV-3 15.6 µM | LOX IMVI 6.22 µM | SF-539 24 µM | DU-145 23.7 µM | T47D 23.7 µM | SF-268 15.4 µM | SNB-75 13.8 µM | CCRF-CEM 16.4 µM | SNB-19 15.1 µM | SK-MEL-2 11.1 µM | OVCAR-4 13.8 µM | HOP-62 13.4 µM | SF-295 17.7 µM | K562 32.4 µM | MOLT-4 19.6 µM | 786-0 13.7 µM | NCI/ADR-RES 74.6 µM | HCC 2998 6.08 µM | Hs-578T 13.2 µM | NCI-H226 13.1 µM | TK-10 14.5 µM | MDA-N 22.8 µM | OVCAR-5 15.1 µM | HCT-116 16.6 µM | COLO 205 31.2 µM | PC-3 5.47 µM | SW-620 31.8 µM | MDA-MB-435 16.5 µM | UACC-257 22.2 µM | SK-MEL-5 33 µM | UO-31 19.4 µM | KM12 17.1 µM | A498 16 µM | SR 42.7 µM | UACC-62 20.7 µM | NCI-H460 12.9 µM | CAKI-1 32.1 µM | NCI-H23 16.4 µM | RPMI-8226 23.3 µM | ACHN 20.8 µM | NCI-H522 13.1 µM | EKVX 16 µM | HOP-92 17.8 µM | MCF7 26.6 µM | OVCAR-8 18.7 µM | SN12C 29.6 µM | U-251 21.9 µM | MDA-MB-231 21.7 µM | SK-MEL-28 19.6 µM | M14 28.6 µM | A549 19.2 µM | OVCAR-3 13.3 µM | IGROV-1 4.51 µM
